In publication PMC10106425 (ACS infectious diseases, 2023):
Like-named read-outs stand apart in the source and are kept apart here.

Key:
PfARK2 [1] = test: ADP-Glo kinase assay; type: biochemical, P. falciparum; conditions: up to 5 μM
P. falciparum Dd2 = test: Flow-cytometry rate of killing assay; type: cell-based, Plasmodium falciparum; conditions: 10 × EC50
[2] = system: Plasmodium falciparum strain Dd2; test: SYBR Green I proliferation assay, asynchronous blood stage, Dd2; type: cell-based; conditions: for EC50: read-out: Pf Dd2 EC50
PfARK2 [3] = test: Radioactive kinase assay; type: biochemical, P. falciparum; conditions: highest concentration tested 2 μM
HepG2 cells = test: Cytotoxicity assay; type: cell-based, human; conditions: for EC50: read-out: HepG2 EC50
[4] = system: Plasmodium falciparum strain 3D7; test: SYBR Green I proliferation assay, asynchronous blood stage, 3D7
PfARK3 = test: KinaseSeeker split-luciferase competitive binding assay; set-up: species or system P. falciparum
PKB = PKB (Plasmodium falciparum, UniProt Q8I4W3); test: as above; set-up: species or system P. falciparum; conditions: read-out: % activity remaining at 2.5 μM, PKB
PK5 = PK5 (Plasmodium falciparum, UniProt P61075); test: as above; set-up: species or system P. falciparum; conditions: read-out: % activity remaining at 2.5 μM, PK5
PK5, sequence (P61075 whole entry): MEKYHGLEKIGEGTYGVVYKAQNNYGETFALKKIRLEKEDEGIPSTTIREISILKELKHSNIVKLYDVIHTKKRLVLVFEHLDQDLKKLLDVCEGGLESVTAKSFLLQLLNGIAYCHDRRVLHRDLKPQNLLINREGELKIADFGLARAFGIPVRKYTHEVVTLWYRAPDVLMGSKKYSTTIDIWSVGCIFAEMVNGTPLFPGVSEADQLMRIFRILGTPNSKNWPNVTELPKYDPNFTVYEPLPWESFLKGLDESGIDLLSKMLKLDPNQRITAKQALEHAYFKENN

PK9 = test: as above; set-up: species or system P. falciparum
Pf NEK1 = test: as above; set-up: species or system P. falciparum
CDPK2 = CDPK2 (Plasmodium falciparum, UniProt Q8ICR0); test: as above; set-up: species or system P. falciparum; conditions: read-out: % activity remaining at 2.5 μM, CDPK2
CDPK2, sequence (Q8ICR0 whole entry): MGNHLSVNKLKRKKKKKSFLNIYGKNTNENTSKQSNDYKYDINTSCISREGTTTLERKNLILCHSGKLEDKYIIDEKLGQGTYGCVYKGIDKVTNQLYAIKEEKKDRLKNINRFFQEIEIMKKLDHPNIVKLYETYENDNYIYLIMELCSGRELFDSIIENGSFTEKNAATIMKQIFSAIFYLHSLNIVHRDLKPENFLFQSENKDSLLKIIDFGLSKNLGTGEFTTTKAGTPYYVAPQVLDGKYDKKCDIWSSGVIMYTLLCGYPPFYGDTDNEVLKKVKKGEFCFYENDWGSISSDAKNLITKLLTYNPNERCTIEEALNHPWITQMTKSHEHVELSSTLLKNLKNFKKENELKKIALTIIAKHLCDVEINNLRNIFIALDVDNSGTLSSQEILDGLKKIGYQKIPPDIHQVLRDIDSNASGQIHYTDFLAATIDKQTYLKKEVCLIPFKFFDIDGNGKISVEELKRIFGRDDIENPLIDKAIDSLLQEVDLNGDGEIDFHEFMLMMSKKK

GSK3 = GSK3 (Plasmodium falciparum, UniProt O77344); test: as above; set-up: species or system P. falciparum; conditions: read-out: % activity remaining at 2.5 μM, GSK3
CDPK5 = CDPK5 (Plasmodium falciparum, UniProt A0A5K1K8H0); test: as above; set-up: species or system P. falciparum; conditions: read-out: % activity remaining at 2.5 μM, CDPK5
CDPK5, sequence (A0A5K1K8H0 whole entry): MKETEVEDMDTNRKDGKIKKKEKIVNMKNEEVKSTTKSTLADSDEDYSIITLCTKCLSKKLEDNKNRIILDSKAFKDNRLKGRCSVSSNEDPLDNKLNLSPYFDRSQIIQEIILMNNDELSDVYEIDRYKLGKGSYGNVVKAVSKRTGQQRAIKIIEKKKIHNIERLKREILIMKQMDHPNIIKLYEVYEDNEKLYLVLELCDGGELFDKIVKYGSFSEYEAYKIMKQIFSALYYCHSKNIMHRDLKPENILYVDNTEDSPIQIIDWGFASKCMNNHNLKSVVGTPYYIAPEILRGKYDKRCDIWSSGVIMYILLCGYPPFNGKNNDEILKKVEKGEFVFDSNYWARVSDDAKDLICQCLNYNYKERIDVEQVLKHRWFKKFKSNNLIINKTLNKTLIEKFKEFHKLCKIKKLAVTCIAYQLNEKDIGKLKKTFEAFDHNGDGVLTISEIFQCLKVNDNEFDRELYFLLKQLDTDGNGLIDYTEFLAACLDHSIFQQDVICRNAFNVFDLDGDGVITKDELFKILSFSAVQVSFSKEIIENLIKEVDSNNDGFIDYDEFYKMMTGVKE

PK6 = PK6 (Plasmodium falciparum, UniProt O77239); test: as above; set-up: species or system P. falciparum; conditions: read-out: % activity remaining at 2.5 μM, PK6
[5] = system: synchronized Dd2 parasites; test: Stage-specific assay; type: cell-based, Plasmodium falciparum; conditions: 5 × EC50 applied later in the ring stage (18 HPI)
PfARK1 = test: KinaseSeeker split-luciferase competitive binding assay; set-up: species or system P. falciparum
human PLK1 = conditions: read-out: PLK1 IC50, from prior publication or from Selleck Chemicals ref 15, 16; cited from earlier work
Pf NEK3 (PF3D7_1201600) = Pf NEK3 (PF3D7_1201600) (Plasmodium falciparum, UniProt Q8I629); test: biochemical; type: binding; conditions: for remaining activity at 2.5 µM: read-out: % activity remaining at 2.5 μM, NEK3
[6] = Plasmodium falciparum, DD2, 72 h
[7] = 3D7, 72 h, read-out: Pf 3D7 EC50
[8] = 72 h, average ± SEM, at least three biological replicates
[9] = 48 h, average ± SEM, at least three biological replicates

Compound | compound incubation required for a full killing effect (P. falciparum Dd2) [h] | EC50 [2, 6] [nM] | EC50 (HepG2 cells; Homo sapiens, HepG2, 48 h) [nM] | EC50 [4, 7] [nM] | Selectivity Index (SI) = HepG2 EC50/Dd2 EC50 (HepG2 cells) | IC50 (human PLK1) [nM] | EC50 [2, 8] [nM] | EC50 (HepG2 cells; [9]) [nM] | further results
CC[C@@H]1C(=O)N(C)c2cnc(Nc3ccc(C(=O)NC4CCN(C)CC4)cc3OC)nc2N1C1CCCC1 [BI-2536 (1), BI-2536] | 24 to 48 | 178 ± 12 | 3730 ± 520 | 135 ± 35 |  |  |  |  | activity in PfARK2 (PfARK2 [1]): lack of activity; inhibitory effect in PfARK2 (PfARK2 [3]): neither compound displayed inhibitory effects; EC50 ([4]; 3D7, read-out: EC50, 3D7 clone A10): 288 nM
CC[C@@H]1C(=O)N(C)c2cnc(Nc3ccc(C(=O)N[C@H]4CC[C@H](N5CCN(CC6CC6)CC5)CC4)cc3OC)nc2N1C(C)C [BI-6727 (11), BI-6727] | 24 to 48 | 230 ± 14 | 1930 ± 460 | 284 ± 52 | 8.0 | 0.87 |  |  | % activity remaining at 2.5 μM, ARK3 (PfARK3): 83.6%; remaining activity at 2.5 µM (PKB): 49.3%; remaining activity at 2.5 µM (PK5): 100%; % activity remaining at 2.5 μM, PK9 (PK9): 100.0%; % activity remaining at 2.5 μM, NEK1 (Pf NEK1): 93.8%; remaining activity at 2.5 µM (CDPK2): 100%; remaining activity at 2.5 µM (GSK3): 100%; Resistance Index (RI) = Dd2 EC50/3D7 EC50 [2]: 0.81; remaining activity at 2.5 µM (CDPK5): 100%; remaining activity at 2.5 µM (PK6): 67.3%; DNA replication (YOYO-1 signal) [5]: delayed increase in the YOYO-1 signal at 54 h; % activity remaining at 2.5 μM, ARK1 (PfARK1): 100.0%; IC50 (Pf NEK3 (PF3D7_1201600)): 130 nM; remaining activity at 2.5 µM (Pf NEK3 (PF3D7_1201600)): 11.1%
C[C@@H](Oc1cc(-n2cnc3ccc(CN4CCN(C)CC4)cc32)sc1C(N)=O)c1ccccc1C(F)(F)F [GSK461364 (12), GSK461364] | 24 to 48 | 533 ± 78 | 1910 ± 210 | 1410 ± 77 |  | 2.2 |  |  | % activity remaining at 2.5 μM, ARK3 (PfARK3): 96.2%; remaining activity at 2.5 µM (PKB): 100%; remaining activity at 2.5 µM (PK5): 100%; % activity remaining at 2.5 μM, PK9 (PK9): 100.0%; % activity remaining at 2.5 μM, NEK1 (Pf NEK1): 100.0%; remaining activity at 2.5 µM (CDPK2): 100%; remaining activity at 2.5 µM (GSK3): 100%; inhibitory effect in PfARK2 (PfARK2 [3]): neither compound displayed inhibitory effects; remaining activity at 2.5 µM (CDPK5): 100%; remaining activity at 2.5 µM (PK6): 100%; % activity remaining at 2.5 μM, ARK1 (PfARK1): 99.5%; IC50 (Pf NEK3 (PF3D7_1201600)): 19 nM; remaining activity at 2.5 µM (Pf NEK3 (PF3D7_1201600)): 9.7%
COc1cc2ncn(-c3cc(OCc4ccccc4C(F)(F)F)c(C(N)=O)s3)c2cc1OC [GW843682 (17), GW843682] |  |  |  |  |  | 2.2 | > 5000 | > 25000 | 
Cc1ncc(CCCN(C)C)cc1Nc1ncc2c(n1)-c1ccc(C(F)(F)F)cc1NC(=S)C2 [MLN0905 (13), MLN0905] |  |  |  |  | 2.0 | 2 | 1820 ± 260 | 3940 ± 110 | 
CN1CCN(c2ccc(OC(F)(F)F)c(Nc3ncc4c(n3)-c3c(c(C(N)=O)nn3CCO)CC4)c2)CC1 [NMS-P937 (15), NMS-P937] |  |  |  |  | […] | […] | > 5000 | 6010 ± 79 | 
COc1cc(OC)c(/C=C/S(=O)(=O)Cc2ccc(OC)c(NCC(=O)O)c2)c(OC)c1 [ON-01910 (16), ON-01910] |  | > 5000 | 11900 |  | […] | […] |  |  | 
Nc1ccc(-c2ccc3ncc4ccc(=O)n(-c5cccc(C(F)(F)F)c5)c4c3c2)cn1 [torin2] |  |  |  |  |  |  | 5.3 ± 0.3 |  | 
SBE 13 [SBE 13 (14)] |  |  |  |  | >7.0 | 0.2 | 3570 ± 130 | > 25000 | 
